The values below come from DBAASP.

Common to all, as to assay: ≥ marks a high value that may be exact or a test limit, other limits are often not marked, values filed in µg/mL are converted to µM
Test [1] has as its system Acinetobacter baumannii CICC 22934.
The subject of test [2] is Bacillus cereus AS1.126.
In test [3] the test system is Enterobacter cloacae CGMCC 1.58.
Test [4] deals with Proteus mirabilis CICC 22931.
Test [5] relates to Lactococcus lactis AS1.1690.
Test [6] concerns Klebsiella aerogenes CGMCC 1.876.
The test system of test [7] is Staphylococcus aureus AS1.72.
The test system of test [8] is Enterococcus faecium CGMCC 1.2334.
In test [9] the test system is Klebsiella pneumoniae subsp. pneumoniae CGMCC 1.176.
Test [10] relates to Pseudomonas aeruginosa CGMCC 1.860.
In test [11] the test system is Escherichia coli AS1.349.
The test system of test [12] is Enterococcus faecalis CGMCC 1.595.
Test [13] concerns Bacillus subtilis PS832.
Test [14] relates to Escherichia coli DL7.
In test [15] the test system is Staphylococcus epidermidis ATCC 12228.
The test system of test [16] is Klebsiella aerogenes ATCC 13048.
Test [17] relates to Xanthomonas campestris pv. Vesicatoria 2133-2.
Test [18] relates to Pseudomonas syringae pv. syringae EPS 94.
In test [19] the test system is Erwinia amylovora PMV 6076.
In test [20] the test system is Pseudomonas aeruginosa CCARM 2163.
Test [21] relates to Escherichia coli KCTC 2593.
Test [22] concerns Staphylococcus aureus CCARM 3126.
In test [23] the test system is Pseudomonas aeruginosa CCARM 2095.
Test [24] relates to Salmonella typhimurium CCARM 8003.
Test [25] relates to Staphylococcus aureus KCTC 3881.
Test [26] relates to Acinetobacter baumannii CCARM 12005.
Test [27] has as its system Pseudomonas aeruginosa KCTC 2513.
Test [28] concerns Staphylococcus aureus CCARM 3089.
Test [29] relates to Pseudomonas aeruginosa KCTC 2004.
The subject of test [30] is Pseudomonas aeruginosa CCARM 2002.
In test [31] the test system is Escherichia coli KCTC 1682.
Test [32] concerns Bacillus subtilis KCTC 3068.
Test [33] concerns Escherichia coli KCTC 2571.
Test [34] has as its system Pseudomonas aeruginosa KCTC 1637.
Test [35] relates to Salmonella typhimurium KCTC 1926.
Test [36] deals with Staphylococcus aureus CCARM 3090.
The test system of test [37] is Staphylococcus aureus KCTC 1916.
Test [38] has as its system Acinetobacter baumannii CCARM 12035.
Test [39] has as its system Pseudomonas aeruginosa CCARM 2003.
The test system of test [40] is Staphylococcus epidermidis KCTC 1917.
The subject of test [41] is Escherichia coli CCARM 1229.
For test [42], the system named is Bacillus subtilis KCTC 1021.
Test [43] deals with Acinetobacter baumannii CCARM 12036.
For test [44], the system named is Salmonella typhimurium CCARM 8007.
The test system of test [45] is Bacillus subtilis KCTC 1022.
Test [46] concerns Acinetobacter baumannii CCARM 12037.
Test [47] deals with Staphylococcus aureus CCARM 3114.
Test [48] relates to Salmonella typhimurium CCARM 8009.
Test [49] deals with Escherichia coli CCARM 1238.
Test [50] has as its system Staphylococcus aureus KCTC 1621.
The subject of test [51] is Staphylococcus aureus CCARM 3108.

In brackets after ≈: the same amount, converted by molar mass.

In general, MIC refers to the lowest concentration found to suppress growth. Lower therefore signals greater potency. `CC(C)C[C@H](NC(=O)[C@H](Cc1cnc[nH]1)NC(=O)[C@H](CCCN=C(N)N)NC(=O)CNC(=O)[C@@H](NC(=O)[C@H](C)NC(=O)[C@@H](N)CO)C(C)C)C(=O)N[C@@H](CCCN=C(N)N)C(=O)N[C@@H](CCCN=C(N)N)C(=O)N[C@@H](Cc1ccccc1)C(=O)N[C@@H](CC(C)C)C(=O)N[C@@H](CC(C)C)C(=O)N[C@@H](CCCN=C(N)N)C(=O)N[C@@H](CCCCN)C(=O)N[C@@H](Cc1cnc[nH]1)C(=O)N[C@@H](CCCN=C(N)N)C(=O)N[C@@H](CCCCN)C(=O)N[C@@H](Cc1cnc[nH]1)C(=O)O` [SAVGRHLRRFLLRKHRKH]: the MIC in [1] is at least 100 µM; in test [2] it was 2.34 µM (≈ 5.31 µg/mL); in test [3], at least 100 µM; in test [4] it was at least 100 µM; in test [5], 4.69 µM (≈ 10.6 µg/mL); in test [6] it was at least 100 µM. The MIC in [7] is 3.13 µM (≈ 7.1 µg/mL); in [8], 4.69 µM (≈ 10.6 µg/mL); in test [9], at least 100 µM; in test [10], at least 100 µM; in test [11], at least 100 µM; in test [12] it was 4.69 µM (≈ 10.6 µg/mL).

Regarding `CC[C@H](C)[C@H](NC(=O)[C@H](CCCN=C(N)N)NC(=O)[C@H](CCCCN)NC(=O)[C@H](CC(C)C)NC(=O)[C@H](CC(C)C)NC(=O)CNC(=O)[C@H](Cc1cnc[nH]1)NC(=O)[C@@H](NC(=O)[C@@H](N)C(C)C)[C@@H](C)CC)C(=O)N[C@@H](CCCCN)C(=O)N[C@H](C(=O)N[C@@H](CC(C)C)C(=O)N[C@@H](CC(C)C)C(N)=O)[C@@H](C)O` [VIHGLLKRIKTLL], the MIC is 0.5 µM (≈ 0.751 µg/mL) in test [13], 2 µM (≈ 3.01 µg/mL) in test [14], 2 µM (≈ 3.01 µg/mL) in [15] and at least 32 µM in test [16].

Consider `CC[C@H](C)[C@H](NC(=O)[C@H](CCCCN)NC(=O)[C@H](CCCCN)NC(=O)[C@H](Cc1ccccc1)NC(=O)[C@H](CC(C)C)NC(=O)[C@H](CCCCN)NC(=O)[C@@H](N)CCCCN)C(=O)N[C@@H](CC(C)C)C(=O)N[C@@H](CCCCN)C(=O)N[C@@H](Cc1ccc(O)cc1)C(=O)N[C@@H](CC(C)C)C(=O)N[C@@H](CCCCN)C(=O)N[C@@H](Cc1ccccc1)C(=O)N[C@@H](CC(C)C)C(=O)N[C@@H](Cc1cnc[nH]1)C(=O)N[C@@H](CO)C(=O)N[C@@H](C)C(=O)N[C@@H](CCCCN)C(=O)O` [KKLFKKILKYLKFLHSAK], for which the MIC in test [17], in [18] and in test [19] was 3.54 µM (≈ 7.9 µg/mL) throughout.

For `CC[C@H](C)[C@H](NC(=O)CNC(=O)[C@H](CCCN=C(N)N)NC(=O)[C@H](CCCCN)NC(=O)[C@@H](NC(=O)[C@H](Cc1cnc[nH]1)NC(=O)[C@H](Cc1cnc[nH]1)NC(=O)[C@H](Cc1ccccc1)NC(=O)[C@@H](N)Cc1ccccc1)[C@@H](C)CC)C(=O)N[C@@H](CCCCN)C(=O)N[C@@H](Cc1cnc[nH]1)C(=O)N[C@H](C(=O)NCC(=O)N[C@@H](CCCCN)C(=O)N[C@H](C(=O)N[C@H](C(=O)N[C@@H](Cc1cnc[nH]1)C(=O)N[C@@H](CCCN=C(N)N)C(=O)N[C@@H](CC(C)C)C(=O)N[C@H](C(=O)N[C@H](C(=O)NCC(=O)O)[C@@H](C)O)C(C)C)[C@@H](C)CC)[C@@H](C)O)C(C)C` [FFHHIKRGIKHVGKTIHRLVTG], the MIC in test [20] was found to be 2 µM (≈ 5.16 µg/mL); in [21] it was 4 µM (≈ 10.3 µg/mL); in test [22] it was 8 µM (≈ 20.7 µg/mL); in test [23], 2 µM (≈ 5.16 µg/mL); in [24], 16 µM (≈ 41.3 µg/mL); in test [25], 4 µM (≈ 10.3 µg/mL). The MIC in test [26] turned out to be 4 µM (≈ 10.3 µg/mL); in test [27] it was 8 µM (≈ 20.7 µg/mL); in test [28] it was 8 µM (≈ 20.7 µg/mL); in test [29], 8 µM (≈ 20.7 µg/mL); in [30], 4 µM (≈ 10.3 µg/mL); in test [31], 2 µM (≈ 5.16 µg/mL). Also, the MIC is 4 µM (≈ 10.3 µg/mL) in test [32]; 4 µM (≈ 10.3 µg/mL) in test [33]; 4 µM (≈ 10.3 µg/mL) in test [34]; 8 µM (≈ 20.7 µg/mL) in [35]; 8 µM (≈ 20.7 µg/mL) in test [36]; 4 µM (≈ 10.3 µg/mL) in [37]. Further, the MIC in test [38] came out at 4 µM (≈ 10.3 µg/mL); in test [39], 4 µM (≈ 10.3 µg/mL); in test [40], 4 µM (≈ 10.3 µg/mL); in [41], 8 µM (≈ 20.7 µg/mL); in test [42], 8 µM (≈ 20.7 µg/mL); in test [43], 4 µM (≈ 10.3 µg/mL). In addition, the MIC in test [44] amounted to 8 µM (≈ 20.7 µg/mL); in test [45], 4 µM (≈ 10.3 µg/mL); in test [46], 4 µM (≈ 10.3 µg/mL); in [47], 8 µM (≈ 20.7 µg/mL); in [48], 8 µM (≈ 20.7 µg/mL); in test [49], 8 µM (≈ 20.7 µg/mL). The MIC came out at 4 µM (≈ 10.3 µg/mL) in test [50] and 8 µM (≈ 20.7 µg/mL) in test [51].
